Laboratory results reported in US20120156311A1, “COMBINATION THERAPY FOR CANCER COMPRISING A PLATINUM-BASED ANTINEOPLASTIC AGENT AND A BIOCOMPATIBLE ELECTRON DONOR” (priority 2009, published 2012).
“Also recorded” adds a separate entry of the source.

Experiments:
[1] = tested on: HeLa (cervical cancer) cells; assay: MTT cell survival assay in HeLa cells; format: cell-based, human
Procedure: Thus, appropriate doses of the molecular promoters were selected by initially screening for toxicity. […] The viability of cells was measured by MTT assay, one of the most commonly used cell viability assays. This method involves the conversion of MTT (3-(4,5-dimethylthiazol-2-yl)-2,5-diphenyltetrazolium bromide) to an insoluble formazan by metabolically-active cells (live cells). Using a solubilizing agent, the formazan is dissolved and its absorbance measured, giving indication to the number of cells that survive.
Cells were cultured in 96-well plates (5×10^3 cells/well) for 24 h. The culture medium was replaced by new culture medium and incubated for 24 h with varying drug concentrations. After the drug treatment, cells were replaced with new medium containing 1.2 mM MTT (Sigma) and incubated for 4 h. The medium was then removed and the formazan crystals solubilized by 100 μL DMSO. The surviving fraction was determined by measuring the absorbance at 540 nm using a Multiskan Spectrum UV/Vis microplate reader (Thermo Scientific), which is directly proportional to the number of viable cells.

[2] = tested on: NIH-OVCAR-3 (HTB-161) cisplatin-resistant human ovarian cancer cells; assay: MTT cell viability assay in cisplatin-resistant HTB-161 cells; format: cell-based; conditions: for effect of combination with cisplatin on viability and drug resistance: cisplatin combined with electron donor (100 μM TMPD)
Procedure: Briefly, HTB-161 cells were plated at a density of 7×10^3 cells/well in 96-well plates. […] After incubation for specified times at 37° C. in a humidified incubator, 20 μL of MTT (5 mg/mL in PBS) were added to each well, and cells were incubated for a further 4 h. After removal of the medium, 100 μL DMSO was added to each well. The absorbance was recorded on a microplate reader at the wavelength of 540 nm.

[3] = tested on: HeLa (cervical cancer) cells; assay: APO-BrdU TUNEL DNA fragmentation assay (flow cytometry) in HeLa cells; format: cell-based, human; conditions: for cells with DNA fragmentation (BrdU-positive): 48 h
Procedure: DNA fragmentation was detected using a standard apoptosis assay, APO-BrdU TUNEL, which utilizes the fact that DNA strand breaks expose a large number of 3′-OH ends, which act as a starting point for terminal deoxynucleotidyl transferase (TdT) to add deoxyribonucleotides. The break sites are labeled by the addition of BrdUTP in the presence of the TdT enzyme. An anti-BrdU antibody conjugated with a fluorescent molecule is added to detect the strand breaks by measuring their fluorescence intensities using flow cytometry. The cell cycle distribution can also be detected simultaneously from the ordinate axis of the generated dot plot (with the BrdU-content on the y-axis), where the events with fluorescence intensity above the background indicate the cells with fragmented DNA (within upper box).
Cells were cultured in 25 cm^2 flasks (˜8×10^7 cells/flask) for 24 h. The culture medium was replaced by new medium and incubated for 48 h with varying drug concentrations. Both floating and adherent cells were harvested by trypsinization and fixed using 1% paraformaldehyde for 30 minutes. Cells were then permeabilized using 70% ice-cold ethanol for at least 24 h at −20° C. Samples were prepared for DNA fragmentation measurements using the APO-BrdU DNA Fragmentation Assay (Invitrogen). To label the DNA, ethanol was removed and cells were resuspended in 50 μL of TUNEL reaction buffer containing terminal deoxynucleotidyl transferase and BrdUTP for 1 h at 37° C., shaking every 15 min. After overnight room temperature incubation, the cells were then incubated with Alexa Fluor 488-conjugated BrdUTP-antibody for 30 min at room temperature. Cells were also stained with propidium iodide (5 μg/mL) and incubated with RNase A for 30 min at room temperature to determine the total cellular DNA content. Samples were then analyzed by a Becton-Dickinson FACSVantage SE flow cytometer in pulse processing mode (10 000 cells per sample). Computational analyses were performed using FCS Express software (De Novo Software, Los Angeles, Calif.) to obtain FL1-H versus FL2-A dot plots (log versus linear, respectively), gating on front scatter (FSC) versus side scatter (SSC) to eliminate debris, as well as FL2-A versus FL2-W to eliminate doublets. Experiments were performed independently at least 3 times
DNA fragmentation was measured by using the APO-BrdU TUNEL assay.

[4] = tested on: NIH-OVCAR-3 (HTB-161) cisplatin-resistant human ovarian cancer cells; assay: APO-BrdU TUNEL DNA fragmentation assay (flow cytometry) in HTB-161 cells; format: cell-based
Procedure: The method based on terminal deoxyribonucleotidyl transferase (TdT)-mediated dUTP nick-end labelling was used to determine the cell apoptosis. […] DNA fragmentation was measured by using the APO-BrdU TUNEL assay. […] After trypsinized, the cells were washed with PBS, were processed for labeling with the deoxythymidine analog 5-bromo-2′-deoxyuridine 5′-triphosphate (BrdUTP), and were incubated with an Alexa Fluor 488 dye-labeled anti-BrdU antibody and propidium iodide by the use of an APO-BrdU™ TUNEL Assay Kit (Invitrogen) as per manufacturer's protocol. The labeled cells were analyzed by flow cytometry.

[5] = tested on: Plasmid DNA [pGEM 3Zf(−), 3197 kp]; assay: Agarose gel electrophoresis of plasmid DNA damage; format: biochemical, Escherichia Coli; conditions: cisplatin alone, up to 3.0 mM
Excerpt: The gel electrophoresis was used for quantitative measurements of plasmid DNA damage, characterizing single-strand breaks (SSBs), double-strand breaks (DBSs) and crosslinks (CLs). We also used the γH2AX DNA damage assay (Invitrogen) to detect DSBs of genomic DNA in cancer cells. Briefly, DNA damaging radicals induce phosphorylation of histone variant H2AX (Ser139) forming DNA foci at the site of DNA DSBs. Phosphorylated H2AX aids in the recruitment of proteins responsible for DSB repair.
Aliquots equivalent to 96 ng DNA were removed from the solutions for gel electrophoresis. All aliquots were analyzed with a standard agarose gel electrophoresis method, namely, on 1% neutral TAE agarose gel in TAE running buffer. The gel was prestained with 1 μg/ml ethidium bromide.

[6] = tested on: NIH-OVCAR-3 (HTB-161) cisplatin-resistant human ovarian cancer cells; assay: Cell cycle analysis by flow cytometry in HTB-161 cells; format: cell-based; conditions: cisplatin alone or with 100 μM TMPD, 24 h
Procedure: HTB-161 cells were plated at a density of 2×10^5 per well on six-well plates. […] The cells were trypsinized, washed twice with chilled PBS, and centrifuged. The cell pellet was resuspended in 70% ethanol at −20° C. overnight. The cells were centrifuged at 1,000 rpm for 5 min; the pellet was washed twice with chilled PBS, suspended in 500 μL PBS, and incubated with RNase (20 μg/mL final concentration) at 25° C. for 30 min and with propidium iodide (50 μg/mL final concentration) for an additional 30 minutes. The cells were analyzed by flow cytometry. Flow cytometry was done with a FACS vantage SE (Becton Dickinson). A minimum of 10,000 cells per sample were counted and the DNA histograms were further analyzed by using FCS Express software for cell cycle analysis.

| SMILES | toxicity of ICG alone (cell survival) ([1]; ICG alone, up to 200 μM) | effect of combination with cisplatin on viability and drug resistance [2] | toxicity of TMPD alone (cell survival / viability) ([1]; TMPD alone, up to 100 μM) | cells with DNA fragmentation (BrdU-positive) ([3]; 100 μM TMPD alone) | DNA fragmentation (BrdU positive cells) ([4]; 100 μM TMPD alone) | cell viability ([2]; 100 μM TMPD alone) | killing of HeLa cells ([1]; 10 and 20 μM cisplatin alone) | cell survival rates ([1]; CDDP alone, 24 h) | cells with DNA fragmentation (BrdU-positive) ([3]; 10 μM CDDP without or with 100 μM TMPD) | cells with DNA fragmentation (BrdU-positive) ([3]; 25 μM CDDP without or with 100 μM TMPD) | cells with DNA fragmentation (BrdU-positive) ([3]; 50 μM CDDP without or with 100 μM TMPD) | cell cycle arrest ([3]; HeLa cells, CDDP as single agent (lower doses) or with TMPD) | DNA fragmentation (BrdU positive cells) ([4]; 50 μM cisplatin without or with 100 μM TMPD) | resistance of HTB-161 cells to cisplatin ([2]; cisplatin alone, 200-300 uM) | DNA strand breaks in plasmid DNA [5] | distribution of cells in the cell cycle [6] |
| --- | --- | --- | --- | --- | --- | --- | --- | --- | --- | --- | --- | --- | --- | --- | --- | --- |
| CC1(C)C(/C=C/C=C/C=C/C=C2\N(CCCCS(=O)(=O)[O-])c3ccc4ccccc4c3C2(C)C)=[N+](CCCCS(=O)(=O)[O-])c2ccc3ccccc3c21.[Na+] [ICG, Indocyanine green] | no significant toxicity | rendered cisplatin-resistant tumor cells almost completely sensitive | – | – | – | – | – | – | – | – | – | – | – | – | – | – |
| CN(C)c1ccc(N(C)C)cc1 [TMPD, N,N, N′,N′-tetramethyl-p-phenylene diamine] | – | rendered cisplatin-resistant tumor cells almost completely sensitive | very mild toxicity; also recorded: only slightly decreased the cell viability; also recorded: no significant toxicity | 2% | 0.04% | slight decrease of the cell viability | – | – | – | – | – | – | – | – | – | – |
| N.N.[Cl][Pt][Cl] [cisplatin, cis-diamminedichloroplatinum(II)] | – | – | – | – | – | – | 20% | decreased the cell survival rates in a dose-dependent manner | 9% | 6% | 38% | accumulate in the G2/M phase | 3.61% | strong resistance | no SSBs and DSBs but intrastrand cross links only; also recorded: intrastrand cross links only, with no SSBs or DSBs | accumulation of cells in the G1 phase |
